Earlier results, collected in patent publication US8920835B2, “Paliperidone double-layered osmotic pump controlled release tablet and preparation method thereof” (Shanghai Institute of Materia Medica, Chinese Academy of …, priority 2009, dated 2014).

Key:
[1] = in vivo

Cc1nc2n(c(=O)c1CCN1CCC(c3noc4cc(F)ccc34)CC1)CCCC2O (stereo not drawn) [Paliperidone]
plasma protein binding rate: 74% | apparent volume of distribution [1]: 487 L | half-life of the terminal elimination phase [1]: about 23 h
